In PubChem BioAssay (NCI) one finds TGI and GI50 data, which are given here for 8 molecules.

What all share (assay): NCI anticancer screen, dose series, 48 h
Experiment [1] has as its system LOX IMVI melanoma.
Experiment [2] has as its system KM12 colon.
The subject of experiment [3] is UACC-62 melanoma.
Experiment [4] has as its system NCI-H226 lung.
Experiment [5] relates to MALME-3M melanoma.
Experiment [6] deals with CCRF-CEM leukemia.
The test system of experiment [7] is SF-268 CNS.
Experiment [8] has as its system RPMI-8226 leukemia.
The subject of experiment [9] is NCI-H460 lung.
The subject of experiment [10] is T-47D breast.

Values joined by “and” are separate entries in the source; they are usually repeats but may differ in a detail not shown here. Equal values may be shown once.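 Five concentrations, 48 hours, 96-well plates. GI50 = concentration required for 50% inhibition of growth. Definition used: TGI = concentration required for complete inhibition of growth.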

Consider `CC(=O)NC(CS)C(=O)O` (stereo not drawn), for which the TGI in [1] was > 100 µM; in experiment [2], > 100 µM and 98100 µM; in experiment [3], > 100 µM; in experiment [4], > 100 µM and 45000 µM; in experiment [5] it was > 100 µM and 54500 µM; in experiment [6], > 100 µM. Besides, the TGI in experiment [7] is > 100 µM and 63800 µM; in experiment [8], > 100 µM and 3720 µM; in experiment [9], 62300 µM; in experiment [10] it was > 100 µM. For the same molecule, the GI50 in experiment [2], in [3], in experiment [4], in experiment [5], in experiment [7] and in experiment [8] was > 100000 nM throughout. Also, the GI50 in experiment [10] was > 100000 nM.

As for `CCC(CC)c1cc(N[C@H]2CC[C@H](N)C2)n2nccc2n1`, the GI50 in experiment [1] was 747 nM; in [2] it was 1700 nM; in experiment [3], 1450 nM; in [4], 969 nM; in [5], 2070 nM; in [6] it was 1080 nM. For the same molecule, the GI50 in experiment [7] is 2440 nM; in experiment [8], 2610 nM; in [9], 358 nM; in experiment [10], 759 nM. Also, the TGI in [1] was > 100 µM; in experiment [2] it was > 100 µM; in experiment [3], 3.46 µM; in experiment [4], 48.7 µM; in [5], 6.24 µM; in [6], > 100 µM. In addition, the TGI in experiment [7] was 13.9 µM; in experiment [8], > 100 µM; in experiment [9], > 100 µM; in [10], > 100 µM.

Consider `COc1cc(N2CCN(C(C)C)CC2)ccc1Nc1nc(Nc2ccc(F)cc2C(=O)NCC(O)CO)c2cc[nH]c2n1` (stereo not drawn), for which the GI50 was 1640 nM in experiment [1]; 10600 nM in experiment [2]; 9870 nM in experiment [3]; 5040 nM in experiment [4]; 4650 nM in experiment [5]; 2650 nM in [6]. The GI50 in experiment [7] is 6890 nM; in experiment [8], 15000 nM; in experiment [9] it was 6050 nM; in experiment [10], 7520 nM. The TGI in experiment [1] was > 25 µM; in experiment [2] it was > 25 µM; in experiment [3], > 25 µM; in experiment [4], 19.9 µM; in [5], > 25 µM; in experiment [6] it was > 25 µM. Further, the TGI in experiment [7] was > 25 µM; in [8], > 25 µM; in experiment [9], 19.4 µM; in [10], > 25 µM.

Consider `C=C[C@H]1CN2CCc3c([nH]c4c([C@@H]5CCCN5C)c(O)ccc34)[C@@H]2C[C@@H]1C[C@H]1c2[nH]c3ccccc3c2CCN1C`, for which the TGI in experiment [1] is 3.03 µM and 2.86 µM; in [2], 2.61 µM and 2.99 µM; in experiment [3] it was 3.28 µM; in experiment [4] it was 2.96 µM and 3.13 µM and 3.97 µM; in experiment [5], 3.41 µM; in experiment [7], 3.03 µM and 3.42 µM. For the same molecule, the TGI is 3.1 µM and 2.99 µM in experiment [9]; 3.26 µM and 3.91 µM in [10]. Besides, the GI50 was 1150 nM in experiment [2]; 1270 nM in experiment [4]; 484 nM and 475 nM in experiment [6]; 1940 nM in [8].

As to `NC(=O)c1cc(I)ccc1NC(=O)/C=C/c1ccccc1Cl`, the GI50 is 1820 nM in experiment [1]; 442 nM in experiment [2]; 312 nM in experiment [3]; 1610 nM in experiment [4]; 211 nM in experiment [5]; 363 nM in experiment [6]. In addition, the GI50 is 640 nM in experiment [7], 504 nM in [8], 413 nM in experiment [9] and 3130 nM in [10]. In addition, the TGI was 98.7 µM in [1]; 4.9 µM in [2]; 48.7 µM in experiment [3]; > 60.6 µM in experiment [4]; 17.6 µM in [5]; 31 µM in experiment [7]. Moreover, the TGI in experiment [8] is 4.66 µM; in experiment [9], 4.7 µM; in [10], > 90.8 µM.

Consider `CCCCCCCCCCCCNC(=O)N[C@H](C(=O)N[C@H]1/C=C/CCNC(=O)/C=C/[C@H](C)NC1=O)C(C)C`, for which the GI50 in experiment [1] is 113 nM; in experiment [2], 22.2 nM; in [3], 44.7 nM; in experiment [4], 58.2 nM; in [5], 422 nM; in [6], 49.5 nM. The GI50 was 54.3 nM in [7], 30.9 nM in experiment [8], 41.6 nM in [9] and 144 nM in experiment [10]. The TGI in [1] amounted to 0.355 µM; in [2], 0.0519 µM; in experiment [3], 0.168 µM; in experiment [4], 0.167 µM; in [5] it was 2.99 µM; in experiment [6], 5.13 µM. Also, the TGI came to 1.04 µM in experiment [7], 1 µM in experiment [8], 0.288 µM in [9] and 0.36 µM in experiment [10].

For the molecule `CC1NC(C(=O)O)Cc2cc(O)c(O)cc21` (stereo not drawn), the TGI in experiment [1], in experiment [2], in experiment [3], in [4], in experiment [5] and in [6] was > 100 µM in each case. For the same molecule, the TGI in [7], in [8], in [9] and in [10] was > 100 µM throughout.

Take `O=c1c2cccc(F)c2sc2c(NCCCNCCO)nc3ccccc3c12`: the GI50 is 1130 nM in experiment [1]; 1610 nM in experiment [2]; 1770 nM in experiment [3]; 1700 nM in experiment [4]; 1610 nM in experiment [5]; 1410 nM in experiment [6]. Also, the GI50 in [7] is 1550 nM; in experiment [8], 1760 nM; in experiment [9] it was 653 nM; in [10], 1760 nM. In addition, the TGI turned out to be 2.38 µM in experiment [1]; 3.04 µM in experiment [2]; 3.26 µM in [3]; 3.35 µM in [4]; 3.12 µM in [5]; 3.87 µM in [6]. The TGI in [7] was 3.12 µM; in experiment [8], 3.99 µM; in experiment [9] it was 1.95 µM; in [10], 4.1 µM.
